Experimental data as given in patent publication US20260167621A1, “Three Cluster Galactose Type Compound, Conjugate, Making Method and Use Thereof” (GUANGZHOU RIBOBIO CO., LTD., priority 2023, published 2026).

Assays:
[1] = system: PCSK9 mRNA; experiment: Knock down effect on the expression of PCSK9 mRNA in Hep3B cell; assay type: cell-based, human; conditions: Lipofectamine 3000 transfection, qPCR, actin as reference gene
Protocol: Referring to Chinese Patent Application No. CN109957567B, the synthesized siRNA sequences were shown below:
The compound G2, G4, G5 obtained from the examples 2, 4, 5, bound to the above mentioned siRNA respectively to form conjugates which were shown in Table 4.
Hep3B cell (ATCC, HB-8064) was cultured, the cell density was about 30% to 50% before transfection and relatively uniformly.
Each conjugate samples of Table 4 were prepared to 20 μM storage solution, and were set as experimental groups. Except the experimental groups, normal cell control group (Blank), transfection reagent control group (Mock), negative control group 1 (NC001, Ribobio, siM21 1215011852) and negative control group 2 (NC002, Ribobio, siM21 1215011852) were also set. Referring to the specification of Lipofectamine™ 3000 transfection reagent (Thermo Fisher, L300001), cells were transfected. Both the experimental groups and the control groups had 3 replicates.
The total RNA extraction was performed with reference to the specification of MagZol Reagent (Magen, R4801).
The reverse transcription was performed with reference to the specification of riboSCRIPT™ Reverse Transcription Kit (Ribobio, C11027-2).
Human house keeping gene actin was used for reference gene, forward primer sequence of actin gene: 5′-[…]-3′ (SEQ ID NO: 5), reverse primer sequence: 5′-[…]-3′ (SEQ ID NO: 6); forward primer sequence of human PCSK9 gene: 5′-[…]-3′ (SEQ ID NO: 7), reverse primer sequence: 5′-[…]-3′ (SEQ ID NO: 8). 2×SYBR Green Mix (Ribobio, C10712F −1 m l) and fluorescence quantitative PCR instrument (BioRad, CFX96) were used to perform real time fluorescence quantitative PCR reaction. After PCR reaction, the Ct deviation of 9 replicates of a sample (3 transfection replicates×3 qPCR duplicates) should be ±0.5. Then CFX 2.1 software was used for quantitative analysis.

[2] = biological target: T1, Hepatocyte ASGPR receptor (Homo sapiens, UniProt P07306); experiment: Binding affinity test with hepatocyte ASGPR receptor (Cy5 flow cytometry, binding saturation curve); conditions: for Bmax: average Cy5 fluorescence intensity of live cells minus blank, one site binding (hyperbola) fit; for Bmax / Kd: 0.9-100 nM, 2 hours on ice; for Kd: one site binding (hyperbola) fit of Cy5 fluorescence, read-out: Kd (dissociation equilibrium constant); for binding affinity with ASGPR receptor: statement in words from Table 3
T1 construct: endogenous in cells
T1 sequence (P07306 1-291): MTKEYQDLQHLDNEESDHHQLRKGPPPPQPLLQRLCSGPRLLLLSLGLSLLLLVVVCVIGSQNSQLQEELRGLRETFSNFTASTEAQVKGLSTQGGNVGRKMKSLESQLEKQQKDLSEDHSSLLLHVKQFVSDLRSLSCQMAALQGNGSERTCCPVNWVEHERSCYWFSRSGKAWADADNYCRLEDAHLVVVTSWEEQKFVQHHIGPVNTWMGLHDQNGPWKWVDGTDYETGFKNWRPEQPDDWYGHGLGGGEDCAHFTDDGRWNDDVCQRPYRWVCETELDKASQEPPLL
T1 sequence (P07307 1-311 partner): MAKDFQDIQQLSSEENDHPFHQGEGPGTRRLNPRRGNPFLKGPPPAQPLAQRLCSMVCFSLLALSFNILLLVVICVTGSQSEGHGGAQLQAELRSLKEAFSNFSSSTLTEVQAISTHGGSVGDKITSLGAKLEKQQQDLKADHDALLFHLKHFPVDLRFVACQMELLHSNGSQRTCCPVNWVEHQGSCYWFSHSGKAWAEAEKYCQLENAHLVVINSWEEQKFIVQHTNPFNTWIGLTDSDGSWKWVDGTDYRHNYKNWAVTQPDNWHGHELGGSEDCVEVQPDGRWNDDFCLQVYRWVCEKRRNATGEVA
Protocol: Embodiment 1: Binding Affinity Test with Hepatocyte ASGPR Receptor
The compound G1, G4, G5 obtained from the examples 1, 4, 5, bound to the above mentioned siRNA respectively to form conjugates which were shown in Table 1.
G1-12, G4-12, G5-12 (1 uM) were diluted respectively in a gradient according to the following Table 2.
The cell concentration was diluted by DMEM culture medium with 2% FBS to 4*10^5 cells/mL.
200 μL cells of each sample and 200 μL siRNA were mixed uniformly, 200 μL cells of the blank control group and 200 μL culture medium were mixed uniformly, and were added in 3 wells of 96-well plate with U-shaped bottom, 100 μL each well. Samples of each concentration of all siRNA were placed in the ice box after sampling, and were placed in decolorization shaker and incubated in dark for 2 hours.
50 g of 96-well plate with U-shaped bottom was centrifuged for 2 minutes at 4° C. 80 μL supernatant was aspirated and discarded by pipette, 10 μg/mL propidium iodide was prepared by using of PBS with 2% FBS, 100 μL PI reagent was added in each well and was stained for 15 minutes. After staining, 50 g of 96-well plate with U-shaped bottom was centrifuged for 2 minutes at 4° C. After washed by PBS with 2% FBS for twice, 100 μL PBS with 2% FBS was added for resuspension, flow cytometer was used to test and count the average Cy5 fluorescence intensity of live cell population.

| Substance | PCSK9 mRNA relative expression value, the average relative expression [1] | Bmax [2] | Kd [2] [nM] | binding affinity with ASGPR receptor [2] |
| --- | --- | --- | --- | --- |
| G2-34: G2 bound to 5' end of SEQ ID NO: 3, paired with 5'-phos* SEQ ID NO: 4 (PCSK9 siRNA); structure Z2 (sense GGUCUGGAAUGCAAAGUCA; antisense UGACUUUGCAUUCCAGACC; G2 ligand 5'; 5'-phosphate; modified_base join(1,4,5,6,10,11,12,13,14,15,16) OTHER; 2'-O-methyl modification; modified_base join(2,3,17,18,19) OTHER; thiophosphorylated skeleton modification and 2'-O-methyl modification; modified_base join(7,8,9) OTHER; 2'-fluoro modification; modified_base join(1,5,7,9,11,13,15) OTHER; modified_base join(3,17,18,19) OTHER; modified_base 2 OTHER; thiophosphorylated skeleton modification and 2'-fluoro modification; modified_base join(4,6,8,10,12,14,16) OTHER) [Compound G2-34] | 0.34 | – | – | – |
| G4-12: G4 bound to 5' end of SEQ ID NO: 1 via C6 amino modification, paired with 5'-Cy5 SEQ ID NO: 2; structure Z4 (sense GUAUGUUGCCCGUUUGUCC; antisense GGACAAACGGGCAACAUACCU; G4 ligand via C6 amino; Cy5 label; modified_base join(1,5,8,12,16) OTHER; deoxyribonucleotide modification; modified_base 3 OTHER; thiophosphorylated skeleton modification and deoxyribonucleotide modification; modified_base join(4,6,7,9,10,11,13,14,15,17) OTHER; 2'-fluoro modification; modified_base join(2,18,19) OTHER; thiophosphorylated skeleton modification and 2'-fluoro modification; modified_base join(1,5,7,9,11,13,15,17) OTHER; 2'-O-methyl modification; modified_base join(3,19,20,21) OTHER; thiophosphorylated skeleton modification and 2'-O-methyl modification; modified_base join(2,4) …) [Compound G4-12] | – | 239297 | 6.37 | reach a higher level |
| G4-34: G4 bound to 5' end of SEQ ID NO: 3 via C6 amino modification, paired with 5'-phos* SEQ ID NO: 4; structure Z4 (sense GGUCUGGAAUGCAAAGUCA; antisense UGACUUUGCAUUCCAGACC; G4 ligand via C6 amino; 5'-phosphate; modified_base join(1,4,5,6,10,11,12,13,14,15,16) OTHER; 2'-O-methyl modification; modified_base join(2,3,17,18,19) OTHER; thiophosphorylated skeleton modification and 2'-O-methyl modification; modified_base join(7,8,9) OTHER; 2'-fluoro modification; modified_base join(1,5,7,9,11,13,15) OTHER; modified_base join(3,17,18,19) OTHER; modified_base 2 OTHER; thiophosphorylated skeleton modification and 2'-fluoro modification; modified_base join(4,6,8,10,12,14,16) OTHER) [Compound G4-34] | 0.41 | – | – | – |
| G5-12: G5 bound to 5' end of SEQ ID NO: 1 via C6 amino modification, paired with 5'-Cy5 SEQ ID NO: 2; structure Z5 (sense GUAUGUUGCCCGUUUGUCC; antisense GGACAAACGGGCAACAUACCU; G5 ligand via C6 amino; Cy5 label; modified_base join(1,5,8,12,16) OTHER; deoxyribonucleotide modification; modified_base 3 OTHER; thiophosphorylated skeleton modification and deoxyribonucleotide modification; modified_base join(4,6,7,9,10,11,13,14,15,17) OTHER; 2'-fluoro modification; modified_base join(2,18,19) OTHER; thiophosphorylated skeleton modification and 2'-fluoro modification; modified_base join(1,5,7,9,11,13,15,17) OTHER; 2'-O-methyl modification; modified_base join(3,19,20,21) OTHER; thiophosphorylated skeleton modification and 2'-O-methyl modification; modified_base join(2,4) …) [Compound G5-12] | – | 199232 | 3.69 | reach a higher level |
| G5-34: G5 bound to 5' end of SEQ ID NO: 3 via C6 amino modification, paired with 5'-phos* SEQ ID NO: 4; structure Z5 (sense GGUCUGGAAUGCAAAGUCA; antisense UGACUUUGCAUUCCAGACC; G5 ligand via C6 amino; 5'-phosphate; modified_base join(1,4,5,6,10,11,12,13,14,15,16) OTHER; 2'-O-methyl modification; modified_base join(2,3,17,18,19) OTHER; thiophosphorylated skeleton modification and 2'-O-methyl modification; modified_base join(7,8,9) OTHER; 2'-fluoro modification; modified_base join(1,5,7,9,11,13,15) OTHER; modified_base join(3,17,18,19) OTHER; modified_base 2 OTHER; thiophosphorylated skeleton modification and 2'-fluoro modification; modified_base join(4,6,8,10,12,14,16) OTHER) [Compound G5-34] | 0.33 | – | – | – |
